This passage reports GI50 and TGI results from PubChem BioAssay (NCI).

Some test systems named below: MALME-3M melanoma; SF-539 CNS; HL-60(TB) leukemia; A498 renal; NCI-H23 lung; MOLT-4 leukemia; HOP-92 NSCLC; MDA-MB-231 breast; SR leukemia; SK-MEL-28 melanoma.
Common to all, as to experiment: inhibition of tumour cell growth, NCI panel, 48 h

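All cell lines were grown in 96-well plates and treated with compound for 48 hours. GI50 is the concentration that inhibits growth by half. Definition used: TGI = concentration required for complete inhibition of growth.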 Some results are limits rather than exact numbers.

On to `Cc1ccc(Cl)c(Nc2ccccc2C(=O)O)c1Cl`, for which the GI50 was 23.1 µM in the assay with MALME-3M melanoma; 23.6 µM in the assay with SF-539 CNS; 22.7 µM with HL-60(TB) leukemia; 22.2 µM in the assay with A498 renal; 21.6 µM in the assay with NCI-H23 lung; 29.9 µM in the assay on MOLT-4 leukemia. Moreover, the GI50 in the assay with HOP-92 NSCLC was 16.2 µM; in the assay with MDA-MB-231 breast, 32.1 µM; with SR leukemia, 25.4 µM; in the assay on SK-MEL-28 melanoma, 30.5 µM. Moreover, the TGI in the assay with MALME-3M melanoma amounted to 63.4 µM; in the assay with SF-539 CNS it was 51.3 µM; with HL-60(TB) leukemia it was 51.4 µM; with A498 renal it was 87.4 µM; in the assay on NCI-H23 lung it was 51.4 µM; in the assay on MOLT-4 leukemia it was 83.9 µM. Further, the TGI in the assay on HOP-92 NSCLC is 50 µM; in the assay on MDA-MB-231 breast it was greater than 100 µM; in the assay on SR leukemia, 78.1 µM; in the assay with SK-MEL-28 melanoma it was 89 µM.
For the molecule `CC(C)(C)CC(N)=O`, the TGI with SF-539 CNS, in the assay with HL-60(TB) leukemia, in the assay on A498 renal, in the assay with NCI-H23 lung, in the assay with HOP-92 NSCLC and in the assay on MDA-MB-231 breast was greater than 100 µM each time. For the same molecule, the TGI with SR leukemia and with SK-MEL-28 melanoma was greater than 100 µM throughout.
Take `CN1C/C=C/CCOc2cccc(c2)-c2ccnc(n2)Nc2cccc(c2)C1`: the GI50 with MALME-3M melanoma is 0.0469 µM; in the assay with SF-539 CNS, 0.0338 µM; in the assay on HL-60(TB) leukemia, 0.0259 µM; with A498 renal it was 0.0356 µM; in the assay with NCI-H23 lung, 0.0577 µM; in the assay on MOLT-4 leukemia, 0.0396 µM. In addition, the GI50 was 0.0428 µM with HOP-92 NSCLC, 0.0731 µM with MDA-MB-231 breast, 0.0201 µM with SR leukemia and 0.0349 µM in the assay on SK-MEL-28 melanoma. In addition, the TGI was 0.179 µM with MALME-3M melanoma; 0.155 µM with SF-539 CNS; 0.0941 µM with HL-60(TB) leukemia; 0.11 µM in the assay with A498 renal; 0.289 µM in the assay on NCI-H23 lung; 0.959 µM with MOLT-4 leukemia. The TGI in the assay with HOP-92 NSCLC is 0.242 µM; in the assay on MDA-MB-231 breast, 1.08 µM; in the assay with SK-MEL-28 melanoma, 0.188 µM.
Regarding `Cn1c(NCC(O)CN2CCCC2)cc(=O)n(C)c1=O` (stereo not given), the GI50 in the assay with MALME-3M melanoma, in the assay on SF-539 CNS, in the assay with A498 renal, with NCI-H23 lung, in the assay on MOLT-4 leukemia and in the assay on HOP-92 NSCLC was greater than 100 µM throughout. The GI50 in the assay with MDA-MB-231 breast, in the assay with SR leukemia and in the assay on SK-MEL-28 melanoma was greater than 100 µM throughout. The TGI in the assay on MALME-3M melanoma, in the assay on SF-539 CNS, in the assay with A498 renal, with NCI-H23 lung, with MOLT-4 leukemia and in the assay on HOP-92 NSCLC was greater than 100 µM throughout. Besides, the TGI with MDA-MB-231 breast, in the assay on SR leukemia and with SK-MEL-28 melanoma was greater than 100 µM each time.
Take `COc1cc(-c2c(C#N)c(N)nc(N3CCOCC3)c2C#N)cc(OC)c1OC`: the GI50 was greater than 100 µM in the assay with SF-539 CNS; greater than 100 µM in the assay with HL-60(TB) leukemia; greater than 100 µM in the assay on A498 renal; greater than 100 µM in the assay with MOLT-4 leukemia; 35.9 µM in the assay on HOP-92 NSCLC; 22.6 µM in the assay on MDA-MB-231 breast. The GI50 in the assay with SR leukemia was 13.4 µM; with SK-MEL-28 melanoma, greater than 100 µM. Besides, the TGI in the assay with SF-539 CNS was greater than 100 µM; in the assay on HL-60(TB) leukemia it was greater than 100 µM; in the assay on A498 renal it was greater than 100 µM; in the assay with MOLT-4 leukemia, greater than 100 µM; in the assay with HOP-92 NSCLC, greater than 100 µM; with MDA-MB-231 breast it was 78.9 µM. Moreover, the TGI with SR leukemia is 40.2 µM; with SK-MEL-28 melanoma, greater than 100 µM.
Consider `COc1ccc2nc3cc(Cl)ccc3c(Sc3ccc([N+](=O)[O-])cc3)c2c1`, for which the GI50 in the assay on MALME-3M melanoma, in the assay on A498 renal, in the assay on NCI-H23 lung, in the assay with MOLT-4 leukemia, in the assay on HOP-92 NSCLC and in the assay on SK-MEL-28 melanoma was greater than 100 µM each time. The TGI was greater than 100 µM in the assay on MALME-3M melanoma; greater than 10 µM in the assay on SF-539 CNS; greater than 100 µM in the assay on HL-60(TB) leukemia; greater than 100 µM in the assay with A498 renal; greater than 100 µM with NCI-H23 lung; greater than 100 µM in the assay with MOLT-4 leukemia. Further, the TGI with HOP-92 NSCLC is greater than 100 µM; in the assay with SR leukemia, greater than 10 µM; in the assay on SK-MEL-28 melanoma, greater than 100 µM.
Take `Cc1cc(C)nc(NS(=O)(=O)c2ccc(Nc3c4ccc(Cl)cc4nc4c(C(=O)NCCN(C)C)cccc34)cc2)n1`: the TGI in the assay on MALME-3M melanoma, with SF-539 CNS, in the assay with HL-60(TB) leukemia, in the assay on A498 renal, in the assay with NCI-H23 lung and in the assay with MOLT-4 leukemia was greater than 100 µM throughout. The TGI in the assay on HOP-92 NSCLC, in the assay with SR leukemia and in the assay with SK-MEL-28 melanoma was greater than 100 µM each time.
Regarding `COc1cc([N+](=O)[O-])c(OC)cc1-c1nc2sc(Cl)cn2c1/C=N/NC1=NCCN1`, the GI50 in the assay on SF-539 CNS is 0.184 µM; in the assay with A498 renal it was 1.85 µM; in the assay on NCI-H23 lung, 0.937 µM; with MDA-MB-231 breast, 1.49 µM; in the assay with SR leukemia it was 0.228 µM. For the same molecule, the TGI was determined as 0.352 µM in the assay on SF-539 CNS; 3.57 µM in the assay with A498 renal; 2.42 µM in the assay on NCI-H23 lung; 3.18 µM in the assay with MDA-MB-231 breast; 0.45 µM in the assay on SR leukemia.
`Cc1ccc2c(c1)S(=O)(=O)c1ccc3ccccc3c1N2`: the TGI in the assay with SF-539 CNS, in the assay with HL-60(TB) leukemia, with A498 renal, in the assay with NCI-H23 lung, with MOLT-4 leukemia and with HOP-92 NSCLC was greater than 100 µM in each case. Also, the TGI is greater than 100 µM in the assay on MDA-MB-231 breast, 69.5 µM with SR leukemia and greater than 100 µM with SK-MEL-28 melanoma.
Consider `Cn1c(/C=C/[N+](=O)[O-])cc2ccccc21`, for which the GI50 was 11.1 µM with MALME-3M melanoma; 13.1 µM with HL-60(TB) leukemia; 2.19 µM with A498 renal; 2.73 µM in the assay on NCI-H23 lung; 5.36 µM in the assay on MOLT-4 leukemia; 5.49 µM in the assay with MDA-MB-231 breast. The GI50 in the assay with SR leukemia is 2.16 µM; in the assay with SK-MEL-28 melanoma, 15.7 µM. Besides, the TGI worked out at 25.9 µM with MALME-3M melanoma; 57.5 µM in the assay on HL-60(TB) leukemia; 9.27 µM with A498 renal; 17.1 µM with NCI-H23 lung; 58 µM with MOLT-4 leukemia; 47.9 µM in the assay on MDA-MB-231 breast. Also, the TGI came to 8.06 µM in the assay with SR leukemia and 34.5 µM in the assay with SK-MEL-28 melanoma.
